Columns and labels:
Experiment in all cases: relative viability (nuclei count vs DMSO), 5 days (fraction); higher = more cells survive
Vorinostat + Foretinib = compound: O=C(CCCCCCC(=O)Nc1ccccc1)NO [Vorinostat] + COc1cc2c(Oc3ccc(NC(=O)C4(C(=O)Nc5ccc(F)cc5)CC4)cc3F)ccnc2cc1OCCCN1CCOCC1 [Foretinib] (partner 0.25 µM)
How it was run: (§1)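 After 5 days of treatment, lung cancer cells in 1536-well plates were fixed and stained in a single step (final 0.05% Triton X-100, 1% formaldehyde, 1 ug/ml Hoechst) and their nuclei counted on 4× images. Treatment had been applied by pin tool the day after seeding as one drug alone or as a fixed anchor-drug dose with five library-drug doses (not always all listed) in √10 steps. Relative viability is the nuclei count of treated wells divided by that of vehicle wells, and values are medians of duplicate plates.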

Vorinostat + Tozasertib = compound: O=C(CCCCCCC(=O)Nc1ccccc1)NO [Vorinostat] + Cc1cc(Nc2cc(N3CCN(C)CC3)nc(Sc3ccc(NC(=O)C4CC4)cc3)n2)n[nH]1 [Tozasertib] (partner 0.1 µM)
How it was run: as §1

Vorinostat + Dasatinib = compound: O=C(CCCCCCC(=O)Nc1ccccc1)NO [Vorinostat] + Cc1nc(Nc2ncc(C(=O)Nc3c(C)cccc3Cl)s2)cc(N2CCN(CCO)CC2)n1 [Dasatinib] (partner 0.075 µM)
How it was run: as §1

Vorinostat + OSI-027 = compound: O=C(CCCCCCC(=O)Nc1ccccc1)NO [Vorinostat] + COc1cccc2cc(-c3nc([C@H]4CC[C@H](C(=O)O)CC4)n4ncnc(N)c34)[nH]c12 [OSI-027] (partner 0.5 µM)
How it was run: as §1

Vorinostat + Luminespib = compound: O=C(CCCCCCC(=O)Nc1ccccc1)NO [Vorinostat] + CCNC(=O)c1noc(-c2cc(C(C)C)c(O)cc2O)c1-c1ccc(CN2CCOCC2)cc1 [Luminespib] (partner 0.01 µM)
How it was run: as §1

Vorinostat + Phenformin = compound: O=C(CCCCCCC(=O)Nc1ccccc1)NO [Vorinostat] + N=C(N)NC(=N)NCCc1ccccc1 [Phenformin] (partner 250 µM)
How it was run: as §1

Vorinostat = compound: O=C(CCCCCCC(=O)Nc1ccccc1)NO [Vorinostat]
How it was run: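 A plate was accepted only when its control CV was below 25% and the cells had doubled at least once. Viability is defined from nuclear counts as treated wells divided by vehicle wells, with the median taken across plates. That median covers lung cancer cell lines grown in 1536-well plates, dosed by pinning at five √10-spaced library-drug concentrations, and counted in MetaXpress from 4× Hoechst images after 5 days.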

Vorinostat + Bortezomib = compound: O=C(CCCCCCC(=O)Nc1ccccc1)NO [Vorinostat] + CC(C)C[C@H](NC(=O)[C@H](Cc1ccccc1)NC(=O)c1cnccn1)B(O)O [Bortezomib] (partner 0.002 µM)
How it was run: as §1

Vorinostat + Navitoclax = compound: O=C(CCCCCCC(=O)Nc1ccccc1)NO [Vorinostat] + CC1(C)CCC(c2ccc(Cl)cc2)=C(CN2CCN(c3ccc(C(=O)NS(=O)(=O)c4ccc(N[C@H](CCN5CCOCC5)CSc5ccccc5)c(S(=O)(=O)C(F)(F)F)c4)cc3)CC2)C1 [Navitoclax] (partner 0.5 µM)
How it was run: as §1

Vorinostat + Olaparib = compound: O=C(CCCCCCC(=O)Nc1ccccc1)NO [Vorinostat] + O=C(c1cc(Cc2n[nH]c(=O)c3ccccc23)ccc1F)N1CCN(C(=O)C2CC2)CC1 [Olaparib] (partner 8 µM)
How it was run: as §1

Vorinostat + Alpelisib = compound: O=C(CCCCCCC(=O)Nc1ccccc1)NO [Vorinostat] + Cc1nc(NC(=O)N2CCC[C@H]2C(N)=O)sc1-c1ccnc(C(C)(C)C(F)(F)F)c1 [Alpelisib] (partner 2 µM)
How it was run: as §1

Vorinostat + Crizotinib = compound: O=C(CCCCCCC(=O)Nc1ccccc1)NO [Vorinostat] + C[C@@H](Oc1cc(-c2cnn(C3CCNCC3)c2)cnc1N)c1c(Cl)ccc(F)c1Cl [Crizotinib] (partner 1 µM)
How it was run: as §1

Vorinostat + Lapatinib = compound: O=C(CCCCCCC(=O)Nc1ccccc1)NO [Vorinostat] + CS(=O)(=O)CCNCc1ccc(-c2ccc3ncnc(Nc4ccc(OCc5cccc(F)c5)c(Cl)c4)c3c2)o1 [Lapatinib] (partner 2 µM)
How it was run: as §1

Vorinostat + Linsitinib = compound: O=C(CCCCCCC(=O)Nc1ccccc1)NO [Vorinostat] + C[C@]1(O)C[C@@H](c2nc(-c3ccc4ccc(-c5ccccc5)nc4c3)c3c(N)nccn32)C1 [Linsitinib] (partner 1 µM)
How it was run: as §1

Vorinostat + Pictilisib = compound: O=C(CCCCCCC(=O)Nc1ccccc1)NO [Vorinostat] + CS(=O)(=O)N1CCN(Cc2cc3nc(-c4cccc5[nH]ncc45)nc(N4CCOCC4)c3s2)CC1 [Pictilisib] (partner 1 µM)
How it was run: as §1

## NCI-H1623
Vorinostat + Foretinib; first compound 0.253 µM
  relative viability: 0.918
Vorinostat + Foretinib; first compound 0.8 µM
  relative viability: 0.781
Vorinostat + Foretinib; first compound 2.53 µM
  relative viability: 0.42
Vorinostat + Foretinib; first compound 8 µM
  relative viability: 0.233
Vorinostat + Tozasertib; first compound 0.253 µM
  relative viability: 0.41
Vorinostat + Tozasertib; first compound 0.8 µM
  relative viability: 0.408
Vorinostat + Tozasertib; first compound 2.53 µM
  relative viability: 0.283
Vorinostat + Tozasertib; first compound 8 µM
  relative viability: 0.217
Vorinostat + Dasatinib; first compound 0.253 µM
  relative viability: 0.387
Vorinostat + Dasatinib; first compound 0.8 µM
  relative viability: 0.521
Vorinostat + Dasatinib; first compound 2.53 µM
  relative viability: 0.436
Vorinostat + Dasatinib; first compound 8 µM
  relative viability: 0.203
Vorinostat + OSI-027; first compound 0.253 µM
  relative viability: 0.462
Vorinostat + OSI-027; first compound 0.8 µM
  relative viability: 0.392
Vorinostat + OSI-027; first compound 2.53 µM
  relative viability: 0.281
Vorinostat + OSI-027; first compound 8 µM
  relative viability: 0.209
Vorinostat + Luminespib; first compound 0.253 µM
  relative viability: 0.529
Vorinostat + Luminespib; first compound 0.8 µM
  relative viability: 0.564
Vorinostat + Luminespib; first compound 2.53 µM
  relative viability: 0.398
Vorinostat + Luminespib; first compound 8 µM
  relative viability: 0.291
Vorinostat + Phenformin; first compound 0.253 µM
  relative viability: 0.61
Vorinostat + Phenformin; first compound 0.8 µM
  relative viability: 0.564
Vorinostat + Phenformin; first compound 2.53 µM
  relative viability: 0.462
Vorinostat + Phenformin; first compound 8 µM
  relative viability: 0.225
Vorinostat; 0.253 µM
  relative viability: 0.916
Vorinostat; 0.8 µM
  relative viability: 0.948
Vorinostat; 2.53 µM
  relative viability: 0.358
Vorinostat; 8 µM
  relative viability: 0.217

## Calu-6
Vorinostat + Foretinib; first compound 0.253 µM
  relative viability: 0.975
Vorinostat + Foretinib; first compound 0.8 µM
  relative viability: 0.728
Vorinostat + Foretinib; first compound 2.53 µM
  relative viability: 0.183
Vorinostat + Foretinib; first compound 8 µM
  relative viability: 0.0381
Vorinostat + Bortezomib; first compound 0.253 µM
  relative viability: 0.917
Vorinostat + Bortezomib; first compound 0.8 µM
  relative viability: 0.864
Vorinostat + Bortezomib; first compound 2.53 µM
  relative viability: 0.434
Vorinostat + Bortezomib; first compound 8 µM
  relative viability: 0.127
Vorinostat + Navitoclax; first compound 0.253 µM
  relative viability: 0.849
Vorinostat + Navitoclax; first compound 0.8 µM
  relative viability: 0.761
Vorinostat + Navitoclax; first compound 2.53 µM
  relative viability: 0.212
Vorinostat + Navitoclax; first compound 8 µM
  relative viability: 0.0656
Vorinostat + Olaparib; first compound 0.253 µM
  relative viability: 0.527
Vorinostat + Olaparib; first compound 0.8 µM
  relative viability: 0.377
Vorinostat + Olaparib; first compound 2.53 µM
  relative viability: 0.169
Vorinostat + Olaparib; first compound 8 µM
  relative viability: 0.078
Vorinostat + Alpelisib; first compound 0.253 µM
  relative viability: 1.25
Vorinostat + Alpelisib; first compound 0.8 µM
  relative viability: 0.917
Vorinostat + Alpelisib; first compound 2.53 µM
  relative viability: 0.302
Vorinostat + Alpelisib; first compound 8 µM
  relative viability: 0.0879
Vorinostat + Crizotinib; first compound 0.253 µM
  relative viability: 0.745
Vorinostat + Crizotinib; first compound 0.8 µM
  relative viability: 0.5
Vorinostat + Crizotinib; first compound 2.53 µM
  relative viability: 0.153
Vorinostat + Crizotinib; first compound 8 µM
  relative viability: 0.0713
Vorinostat + Lapatinib; first compound 0.253 µM
  relative viability: 1.12
Vorinostat + Lapatinib; first compound 0.8 µM
  relative viability: 0.876
Vorinostat + Lapatinib; first compound 2.53 µM
  relative viability: 0.416
Vorinostat + Lapatinib; first compound 8 µM
  relative viability: 0.107
Vorinostat + Linsitinib; first compound 0.253 µM
  relative viability: 0.995
Vorinostat + Linsitinib; first compound 0.8 µM
  relative viability: 0.868
Vorinostat + Linsitinib; first compound 2.53 µM
  relative viability: 0.293
Vorinostat + Linsitinib; first compound 8 µM
  relative viability: 0.0756
Vorinostat + Pictilisib; first compound 0.253 µM
  relative viability: 1.11
Vorinostat + Pictilisib; first compound 0.8 µM
  relative viability: 0.838
Vorinostat + Pictilisib; first compound 2.53 µM
  relative viability: 0.238
Vorinostat + Pictilisib; first compound 8 µM
  relative viability: 0.0615
Vorinostat; 0.253 µM
  relative viability: 1.07
Vorinostat; 0.8 µM
  relative viability: 0.894
Vorinostat; 2.53 µM
  relative viability: 0.361
Vorinostat; 8 µM
  relative viability: 0.0946
